Data set [1] deals with T1, soybean LOX.
T1 construct: purchased Sigma (St. Louis, MO, USA)
Briefly: LOX activity inhibition. The format is biochemical. An excerpt: κ-Carrageenan and lipoxygenase type I-B from soybean were obtained from Sigma (St. Louis, MO, USA). COX inhibition was studied utilizing the kit of “COX Inhibitor Screening Assay” (Cayman Chemical Co., Ann Arbor, MI, USA). In vivo tests, male and female (23–30 g) mice R”’ were stored in the Centre of the School of Veterinary Medicine (EL54-BIO42), (Aristotle University of Thessaloniki, Thessaloniki, Greek), licensed by the state official veterinary authorities (presidential degree 56/2013, in standardization with the European Directive 2010/63/EEC). The experimental protocols were approved by the Committee of Animal Ethics of the Prefecture of Central Macedonia (no. 270079/2500).
The reaction mixture contained the final concentration (300 µΜ) of the test derivatives, dissolved in absolute ethanol (10–300 µM), or the solvent (control), soybean LOX, dissolved in 0.9% NaCl solution (250 u/mL) and sodium linoleate (100 µM), in Tris–HCl buffer, pH 9.0. The reaction was monitored for 7 min at a temperature of 28 °C, noting the absorbance (234 nm) of a conjugated diene structure, following the formation of 13-hydroperoxy-linoleic acid. The performance of the assay was validated utilizing NDGA as a standard. For the evaluation of the inhibition type, the above experiments were repeated, utilizing sodium linoleate (1 mM), which is greater than the saturating substrate concentration.

Data set [2] relates to gastric mucosa. Nature of the data set: Ulcerogenic activity (gastric lesions after oral dosing). Format: in vivo. The settings on record: mice, oral 0.028 mmol/kg, 3 successive days, N = 5. On the procedure: Gastric toxicity was conducted through oral administration of 0.028 mmol/kg of the tested derivatives on mice, and the extent of lesions of the gastric mucosa was measured. […] This study clearly indicated the superiority of our compounds over indomethacin concerning ulcerogenic liability.
The ulcerogenicity effect of compounds was assessed on male mice by following the reported protocol. Male mice weighing 22–25 g were separated into six groups (five animals in each group). […] The placebo control group was administrated saline with few drops of Tween-80. The animals were sacrificed 4 h after the last dose, and the stomachs were inspected for stomach lesions. The scoring of ulcerogenicity was expressed in terms of: average number of ulcers per stomach, percentage incidence of ulcers and percent incidence of ulcer divided by 10. The ulcer index was calculated using the sum of the three above values.

In data set [3] the test system is T2, human recombinant COX-2.
T2 construct: purchased Cayman Chemical Co., Ann Arbor, MI, USA
Nature of the data set: COX-2 inhibition (Cayman COX Inhibitor Screening Assay). The format is biochemical. How it is done: (§1) κ-Carrageenan and lipoxygenase type I-B from soybean were obtained from Sigma (St. Louis, MO, USA). COX inhibition was studied utilizing the kit of “COX Inhibitor Screening Assay” (Cayman Chemical Co., Ann Arbor, MI, USA).
(§2) The action of the tested derivatives on COX-1 and COX-2 inhibition was analyzed utilizing a commercial kit furnished by Cayman (Cayman Chemical Co., Ann Arbor, MI, USA) and by applying the instructions of the manufacturer. The kit utilizes human recombinant COX-2 and ovine COX-1 enzymes. […] The assay analyzes PGF2a produced by SnCl2 reduction of COX-derived PGH2.

In data set [4] the target is T3, ovine COX-1 (Ovis aries, UniProt P05979).
T3 construct: purchased Cayman Chemical Co., Ann Arbor, MI, USA
T3 sequence (P05979 25-600): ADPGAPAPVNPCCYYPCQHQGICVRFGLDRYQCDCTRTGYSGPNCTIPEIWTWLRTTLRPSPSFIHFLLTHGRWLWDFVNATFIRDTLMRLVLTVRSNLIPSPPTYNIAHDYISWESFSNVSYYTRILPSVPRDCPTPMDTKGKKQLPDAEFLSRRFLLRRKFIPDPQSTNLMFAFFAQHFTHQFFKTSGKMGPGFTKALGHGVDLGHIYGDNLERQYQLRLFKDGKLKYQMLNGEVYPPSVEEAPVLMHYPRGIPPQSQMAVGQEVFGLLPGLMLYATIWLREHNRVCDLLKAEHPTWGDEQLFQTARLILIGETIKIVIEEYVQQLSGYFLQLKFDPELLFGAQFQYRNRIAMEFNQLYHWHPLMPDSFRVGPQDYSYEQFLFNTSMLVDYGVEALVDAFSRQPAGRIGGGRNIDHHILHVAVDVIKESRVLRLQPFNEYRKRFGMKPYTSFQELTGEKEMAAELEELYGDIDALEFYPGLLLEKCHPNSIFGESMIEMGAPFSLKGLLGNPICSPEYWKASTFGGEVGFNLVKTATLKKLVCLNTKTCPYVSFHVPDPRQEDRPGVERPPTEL
Nature of the data set: COX-1 inhibition (Cayman COX Inhibitor Screening Assay). Format: biochemical. How it is done: as §1, §2

In data set [5] the test system is MRC-5 cells. Briefly: Cytotoxicity / cell proliferation in MRC-5 cells. Format: cell-based, human. The settings on record: MRC-5 cells, 0.1, 1 and 10 μM, 48 h. How it is done:
The evaluation of cellular cytotoxicity of derivatives 3, 4, 10, 11 and 14 in normal human MRC-5 cells was accomplished at three different concentrations in cell culture, i.e., 0.1, 1 and 10 μM (Figure 7). No substantial effect on cell proliferation after 48 h of exposure was found in cultures, as the growth was ≥98% for all assessed agents by comparison with the control (untreated cells) (Figure 7).
The MRC-5 human cell line from lung fibroblast was stored and then utilized in our laboratory in a conventional manner (passage < 40). MRC-5 cells were cultured (using a humidified atmosphere enclosing 5% CO2 at 37 °C) in medium DMEM with 10% v/v FBS, 1% PS penicillin–streptomycin. The assessed derivatives were dissolved in dimethyl sulfoxide and stored at a temperature of 4 degrees centigrade. For cytotoxicity assessment, cells were seeded in 96-well culture plates at 5 × 10^4 cells/mL (initial density) and permitted to attach for at least 3 h before adding the compounds at increasing concentrations (0.1, 1 and 10 µM). […] To evaluate the cytotoxicity of each derivative, the cells were given an additional 48 h to grow before estimating their number in culture utilizing the Neubauer counting chamber (microscope observation). In every treated culture, cell growth was expressed and reported as the percentage of untreated growing cells. GraphPad Prism 6.0 program was utilized in order to accomplish statistical t-test analysis.
Figure 7 Cell proliferation assessment of MRC-5 cell lines subjected to different derivatives in cell culture. MRC-5 cell lines grown in culture were incubated separately with each of the derivatives at concentrations of 0.1, 1 and 10 μM for 48 h. The cell number was analyzed in cell cultures with microscopic techniques (Neubauer counting chamber), as reported in “Methods” and expressed as % of the proliferation of cultures involving control untreated cells. […] The diagram illustrated above and the t-test statistical analysis were performed utilizing the GraphPad Prism 6.0 program. No significant statistical difference between the control untreated culture cells with each tested derivative was attained.

For data set [6], the system named is carrageenan-induced mouse paw edema. Nature of the data set: Carrageenan-induced mouse paw edema. The format is in vivo. The note with it: Mus musculus, ip, 3.5 h, i.p., 0.028 mmol/kg, paw weight after 3.5 h. On the procedure: All tested compounds were administrated through i.p. with a molar concentration of 0.028 mmol/kg.
The animals were weighed and then randomly divided into control, standard and test groups with each group including 10 mice. […] Edema was induced by injecting 0.1 mL of 1% aqueous solution of carrageenan subcutaneously to the sub-plantar region of the right hind paw, utilizing the left paw as control. The assessed derivatives, in suspended water/Tween-80, were injected i.p. […] After 3.5 h, the hind paws were excised and were weighed separately. The edema paws were estimated as paw weight increase.
On the technique in general: In the carrageenan paw model, swelling and tenderness develop within hours.

Take `O=C1NC(=Nc2nnc(C34CC5CC(CC(C5)C3)C4)s2)SC1=Cc1c(Cl)cccc1Cl` [Compound 14]: the “Enzymatic inhibition against LOX (in words)” value in data set [1] is “modest enzymatic inhibition”. The “LOX Inhibition (%) 100 μΜ” value in data set [1] (100 μΜ) turned out to be 34.5 ± 1.6 %. The “Number of Animals with Ulcer” value in data set [2] is given as “nil”. In addition, in data set [3], the “COX-2 Inhibition, Inhibition (%) 200 μΜ” value stood at 0%. Moreover, the “COX-1 Inhibition, Inhibition (%) 200 μΜ” value in data set [4] (200 μΜ) came out at 100%. Moreover, the IC50 (in general, the concentration at which inhibition is half-maximal) in data set [4] (read-out: COX-1 Inhibition, IC50 (μΜ)) is 9.62 ± 0.5 µM. The “Cell growth by comparison with the control (untreated cells)” value in data set [5] is on record as at least 98%. For the same compound, the inhibition in vivo (in general, how much of the control response was suppressed) at 28 µmol/kg in data set [6] came out at 60 ± 1.9%.

For the origin of these results see article PMC10142904, “Identification of Novel Cyclooxygenase-1 Selective Inhibitors of Thiadiazole-Based Scaffold as Potent Anti-Inflammatory Agents with Safety Gastric and Cytotoxic Profile” (Molecules, 2023).
